# Earlier results in patent US20180353175A1, “Surgical Fastener with Broad Spectrum MMP Inhibitors” (Ethicon LLC, priority 2017, published 2018).
# Where two headings read alike, the source gives them in different places. Square brackets hold non-standard residues; d marks the D form. Peptide text beside a SMILES is read from it. * marks the point of attachment. 4Abz = Nc1ccc(C(=O)O)cc1; NHOH = ON*
# T1: MMP1 (Homo sapiens, UniProt P03956)
# T1 sequence (P03956 100-469): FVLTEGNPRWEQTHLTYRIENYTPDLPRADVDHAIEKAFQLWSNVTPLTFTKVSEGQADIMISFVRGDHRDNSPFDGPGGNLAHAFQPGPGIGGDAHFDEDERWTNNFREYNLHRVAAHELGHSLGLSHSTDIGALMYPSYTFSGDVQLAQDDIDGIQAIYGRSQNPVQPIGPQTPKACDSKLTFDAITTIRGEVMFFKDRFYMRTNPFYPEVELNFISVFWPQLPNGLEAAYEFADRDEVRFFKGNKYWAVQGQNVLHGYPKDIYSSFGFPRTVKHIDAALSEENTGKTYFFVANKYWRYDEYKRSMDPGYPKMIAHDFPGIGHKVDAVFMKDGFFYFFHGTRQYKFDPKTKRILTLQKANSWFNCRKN
# T2: MMP2 (Homo sapiens, UniProt P08253)
# T2 sequence (P08253 110-660): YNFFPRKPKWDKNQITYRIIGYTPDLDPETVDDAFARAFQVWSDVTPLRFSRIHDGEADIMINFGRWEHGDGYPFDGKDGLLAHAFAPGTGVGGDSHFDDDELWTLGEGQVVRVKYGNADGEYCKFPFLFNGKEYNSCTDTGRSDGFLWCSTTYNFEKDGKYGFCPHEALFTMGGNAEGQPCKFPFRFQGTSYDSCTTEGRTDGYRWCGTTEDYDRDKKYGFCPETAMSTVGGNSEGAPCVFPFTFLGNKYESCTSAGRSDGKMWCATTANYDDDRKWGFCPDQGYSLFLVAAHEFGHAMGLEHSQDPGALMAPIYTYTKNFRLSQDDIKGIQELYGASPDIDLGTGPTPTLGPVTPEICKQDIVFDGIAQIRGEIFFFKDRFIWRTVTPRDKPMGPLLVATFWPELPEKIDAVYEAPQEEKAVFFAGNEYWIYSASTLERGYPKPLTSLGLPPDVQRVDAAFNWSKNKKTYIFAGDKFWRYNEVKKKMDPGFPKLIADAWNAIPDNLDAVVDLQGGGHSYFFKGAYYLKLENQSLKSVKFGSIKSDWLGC
# T3: MMP7 (Homo sapiens, UniProt P09237)
# T3 sequence (P09237 95-267): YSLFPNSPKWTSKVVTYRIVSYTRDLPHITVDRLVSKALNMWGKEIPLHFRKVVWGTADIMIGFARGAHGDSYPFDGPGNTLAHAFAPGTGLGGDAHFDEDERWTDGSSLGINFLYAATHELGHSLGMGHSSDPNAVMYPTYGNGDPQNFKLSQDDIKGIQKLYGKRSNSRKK
# B1: TIMP-3: endogenous tissue inhibitor of metalloproteinases, typically bound to the ECM (protein, UniProt P35625 24-211, looked up)
# Metalloproteinase inhibitor 3: CTCSPSHPQDAFCNSDIVIRAKVVGKKLVKEGPFGTLVYTIKQMKMYRGFTKMPHVQYIHTEASESLCGLKLEVNKYQYLLTGRVYDGKMYTGLCNFVERWDQLTLSQRKGLNYRYHLGCNCKIKSCYYLPCFVTSKNECLWTDMLSNFGYPGYQSKHYACIRQKGGYCSWYRGWAPPDKSIINATDP
# B2: TIMP-4: endogenous tissue inhibitor of metalloproteinases, secreted predominantly in heart and brain tissue (protein, UniProt Q99727 30-224, looked up)
# Metalloproteinase inhibitor 4: CSCAPAHPQQHICHSALVIRAKISSEKVVPASADPADTEKMLRYEIKQIKMFKGFEKVKDVQYIYTPFDSSLCGVKLEANSQKQYLLTGQVLSDGKVFIHLCNYIEPWEDLSLVQRESLNHHYHLNCGCQITTCYTVPCTISAPNECLWTDWLLERKLYGYQAQHYVCMKHVDGTCSWYRGHLPLRKEFVDIVQP
# Experiments:
# MMP1 = target: T1, MMP1
# MMP2 = target: T2, MMP2; conditions: for IC50: read-out: IC50 MMP2
# MMP3 = MMP3 (Homo sapiens, UniProt P08254)
# Sequence of MMP3 (P08254 100-477, species assumed): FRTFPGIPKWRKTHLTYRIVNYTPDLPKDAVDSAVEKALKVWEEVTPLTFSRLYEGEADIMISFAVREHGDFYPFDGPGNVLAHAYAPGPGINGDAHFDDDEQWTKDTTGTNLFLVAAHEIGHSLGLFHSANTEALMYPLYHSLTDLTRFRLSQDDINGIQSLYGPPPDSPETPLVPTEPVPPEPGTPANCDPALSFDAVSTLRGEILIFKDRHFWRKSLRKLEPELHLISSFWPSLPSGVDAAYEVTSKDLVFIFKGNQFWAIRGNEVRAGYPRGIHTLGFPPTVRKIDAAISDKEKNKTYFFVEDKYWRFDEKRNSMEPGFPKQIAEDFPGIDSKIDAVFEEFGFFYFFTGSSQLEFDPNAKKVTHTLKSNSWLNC
# MMP7 = target: T3, MMP7; conditions: for IC50: read-out: IC50 MMP7
# MMP9 = MMP9 (Homo sapiens, UniProt P14780); conditions: for IC50: read-out: IC50 MMP9
# Sequence of MMP9 (P14780 94-707, species assumed): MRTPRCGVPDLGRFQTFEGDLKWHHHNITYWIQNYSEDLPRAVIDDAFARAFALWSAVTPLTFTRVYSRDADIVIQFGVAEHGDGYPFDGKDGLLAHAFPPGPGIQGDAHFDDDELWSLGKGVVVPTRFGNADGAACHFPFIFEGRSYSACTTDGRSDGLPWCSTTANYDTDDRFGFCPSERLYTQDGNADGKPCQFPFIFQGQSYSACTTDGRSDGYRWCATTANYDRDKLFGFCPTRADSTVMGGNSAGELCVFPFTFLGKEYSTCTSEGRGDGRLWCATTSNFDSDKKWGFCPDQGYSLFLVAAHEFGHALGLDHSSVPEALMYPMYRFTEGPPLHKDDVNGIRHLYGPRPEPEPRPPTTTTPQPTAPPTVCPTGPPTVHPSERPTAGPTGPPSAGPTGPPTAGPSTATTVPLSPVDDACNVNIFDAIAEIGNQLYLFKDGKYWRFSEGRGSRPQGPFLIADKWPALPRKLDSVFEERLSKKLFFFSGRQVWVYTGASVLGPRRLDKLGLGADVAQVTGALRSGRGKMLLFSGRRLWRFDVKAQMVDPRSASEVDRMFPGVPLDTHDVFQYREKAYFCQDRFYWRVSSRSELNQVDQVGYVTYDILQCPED
# MMP8 = MMP8 (Homo sapiens, UniProt P22894)
# Sequence of MMP8 (P22894 101-467, species assumed): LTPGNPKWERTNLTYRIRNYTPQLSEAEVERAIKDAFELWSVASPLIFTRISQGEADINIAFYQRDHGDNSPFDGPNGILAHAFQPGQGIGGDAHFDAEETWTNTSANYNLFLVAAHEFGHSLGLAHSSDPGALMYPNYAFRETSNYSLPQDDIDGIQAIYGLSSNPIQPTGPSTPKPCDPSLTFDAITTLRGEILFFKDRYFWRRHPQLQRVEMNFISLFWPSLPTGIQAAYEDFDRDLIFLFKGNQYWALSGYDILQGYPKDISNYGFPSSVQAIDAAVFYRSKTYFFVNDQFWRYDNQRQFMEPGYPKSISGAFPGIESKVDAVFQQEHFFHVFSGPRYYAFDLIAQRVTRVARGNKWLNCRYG
# MMP12 = MMP12 (Homo sapiens, UniProt P39900)
# Sequence of MMP12 (P39900 106-470, species assumed): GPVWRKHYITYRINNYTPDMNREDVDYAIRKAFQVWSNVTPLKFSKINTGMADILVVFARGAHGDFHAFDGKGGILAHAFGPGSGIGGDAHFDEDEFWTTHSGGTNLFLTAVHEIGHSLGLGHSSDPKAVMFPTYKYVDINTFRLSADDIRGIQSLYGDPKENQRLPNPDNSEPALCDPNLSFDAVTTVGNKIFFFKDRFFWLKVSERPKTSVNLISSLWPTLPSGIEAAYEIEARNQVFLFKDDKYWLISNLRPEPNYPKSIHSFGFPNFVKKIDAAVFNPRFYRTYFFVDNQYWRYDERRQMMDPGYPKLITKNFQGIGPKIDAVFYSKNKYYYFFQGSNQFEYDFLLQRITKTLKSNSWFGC
# MMP13 = MMP13 (Homo sapiens, UniProt P45452)
# MMP14 = MMP14 (Homo sapiens, UniProt P50281)
# [1] = target: TACE (TNF-α-converting enzyme) (Homo sapiens, UniProt P78536)
# Sequence of TACE (TNF-α-converting enzyme) (P78536 215-824, species assumed): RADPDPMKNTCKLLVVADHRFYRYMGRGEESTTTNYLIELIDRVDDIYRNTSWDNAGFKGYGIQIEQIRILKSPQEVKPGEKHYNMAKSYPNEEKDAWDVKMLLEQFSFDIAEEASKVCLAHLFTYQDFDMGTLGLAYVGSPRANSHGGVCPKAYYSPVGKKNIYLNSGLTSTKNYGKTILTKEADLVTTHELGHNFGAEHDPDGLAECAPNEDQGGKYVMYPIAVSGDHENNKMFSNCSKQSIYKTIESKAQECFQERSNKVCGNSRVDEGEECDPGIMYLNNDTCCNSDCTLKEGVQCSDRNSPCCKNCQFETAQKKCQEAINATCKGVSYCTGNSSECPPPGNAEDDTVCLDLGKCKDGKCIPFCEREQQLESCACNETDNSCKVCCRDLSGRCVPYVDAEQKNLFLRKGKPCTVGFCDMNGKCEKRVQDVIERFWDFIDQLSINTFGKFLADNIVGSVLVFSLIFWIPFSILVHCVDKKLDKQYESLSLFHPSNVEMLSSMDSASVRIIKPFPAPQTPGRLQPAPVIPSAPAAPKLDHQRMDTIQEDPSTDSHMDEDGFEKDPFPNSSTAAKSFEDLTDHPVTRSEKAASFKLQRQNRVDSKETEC
# [2] = read-out: IC50 MMP8 (converted)
molecule,measurement,setting,value
7-dimethylamino-6-dimethyl-6-deoxytetracycline [Minocycline],inhibition of MMP1 (in words),MMP1,effective for the inhibition
same,inhibition of MMP2 (in words),MMP2,effective for the inhibition
same,IC50,MMP3,290000 nM
same,IC50,MMP7,125000 nM
same,IC50,MMP9,180000 nM
O=C(NO)C1(S(=O)(=O)c2ccc(Oc3ccc(Cl)cc3)cc2)CCN(Cc2ccccc2)CC1 [239796-97-5],inhibition of MMP1 (in words),MMP1,suppress
CC1(C)NC(=O)N(C[C@@H](COc2ccc(-c3ccc(OC(F)(F)F)cc3)cc2)N(O)C=O)C1=O [ABT-770],inhibition of MMP2 (in words),MMP2,inhibits
same,inhibition of MMP9 (in words),MMP9,inhibits
C=CCN(C(=O)CCC(=O)N(O)CC(C)C)C(Cc1ccccc1)C(=O)NC (stereo not drawn) [BB-1101],IC50,MMP1,8 nM
same,IC50,MMP2,4 nM
same,IC50,MMP3,30 nM
same,IC50,MMP7,60 nM
same,IC50,MMP8; [2],3 nM
same,IC50,MMP9,3 nM
same,IC50,MMP12,5 nM
same,IC50,MMP13,7 nM
same,IC50,MMP14,10 nM
CNC(=O)[C@H](Cc1ccccc1)NC(=O)[C@H](CC(C)C)[C@H](CSc1cccs1)C(=O)NO [Batimastat],IC50,MMP7,6 nM
same,IC50,MMP9,1 nM
NC(=O)C1=C(O)CC2CC3Cc4cccc(O)c4C(=O)C3=C(O)C2(O)C1=O (stereo not drawn) [COL-3],IC50,MMP1,91600 nM
same,IC50,MMP8; [2],129000 nM
same,IC50,MMP13,808 nM
CN1C(=O)N(C[C@H](C(=O)NO)[C@@H](CC2CCCC2)C(=O)N2CCCCC2)C(=O)C1(C)C [Cipemastat],inhibition of MMP1 (in words),MMP1,can inhibit
same,inhibition of MMP3 (in words),MMP3,can inhibit
same,inhibition of MMP9 (in words),MMP9,can inhibit
C[C@H]1c2cccc(O)c2C(=O)C2=C(O)[C@]3(O)C(=O)C(C(N)=O)=C(O)[C@@H](N(C)C)[C@@H]3[C@@H](O)[C@@H]21 [Doxycycline],IC50,MMP1,> 400000 nM
same,IC50,MMP2,56000 nM
same,IC50,MMP3,32000 nM
same,IC50,MMP7,28000 nM
same,IC50,MMP8; [2],26000 to 50000 nM
same,IC50,MMP13,2000 to 50000 nM
"CC(C)C[C@@H](NC(=O)[C@@H]1CCCN1C(=O)CNC(=O)c1ccc(N)cc1)C(=O)N[C@H](C)C(=O)NO [FN-439, p-aminobenzoyl-Gly-Pro-D-Leu-D-Ala-NHOH] (H-[4Abz]GP[dL][dA]-{NHOH})",IC50,MMP1,1000 nM
same,IC50,MMP3,150000 nM
same,IC50,MMP8; [2],1000 nM
same,IC50,MMP9,30000 nM
COc1ccc(S(=O)(=O)N(Cc2cccnc2)[C@@H](C(=O)NO)C(C)C)cc1.Cl [MMI-270],inhibition of MMP2 (in words),MMP2,can inhibit
same,inhibition of MMP8 (in words),MMP8,can inhibit
same,inhibition of MMP9 (in words),MMP9,can inhibit
CCN(CC)Cc1cc(C)c(N(Cc2ccccc2)S(=O)(=O)c2ccc(OC)cc2)c(C(=O)NO)c1 [MMP9 inhibitor I],IC50,MMP1,1.05 nM
CNC(=O)[C@@H](NC(=O)[C@H](CC(C)C)[C@H](O)C(=O)NO)C(C)(C)C [Marimastat],IC50,MMP14,1.8 nM
CCOCOCC(CC(C)C(=O)NO)NC(=O)c1ccc(Oc2ccccc2)cc1 (stereo not drawn) [ONO-4817],IC50,MMP1,1.6 nM
same,Ki,MMP2,0.73 nM
same,Ki,MMP3,42 nM
same,Ki,MMP7,2.5 nM
same,Ki,MMP8,1.1 nM
same,IC50,MMP9,2.1 nM
same,Ki,MMP12,0.45 nM
same,Ki,MMP13,1.1 nM
CC1(C)SCCN(S(=O)(=O)c2ccc(Oc3ccncc3)cc2)[C@H]1C(=O)NO [Prinomastat],inhibition of MMP3 (in words),MMP3,specific selectivity
same,inhibition of MMP9 (in words),MMP9,specific selectivity
same,inhibition of MMP14 (in words),MMP14,specific selectivity
O=C(NO)C1(CS(=O)(=O)c2ccc(Oc3ccc(Cl)cc3)cc2)CCOCC1 [RS 130830],inhibition of MMP1 (in words),MMP1,suppress
O=C1NC(=O)C(c2ccc(-c3ccccc3)cc2)(N2CCN(c3ccc([N+](=O)[O-])cc3)CC2)C(=O)N1 [Ro 28-2653],IC50,MMP2,7 to 246 nM
same,IC50,MMP8; read-out: IC50 MMP8,15 nM
same,IC50,MMP9,12 to 23 nM
TIMP-1: endogenous tissue inhibitor of metalloproteinases; extensively glycosylated protein with a molecular mass of 28.5 kDa,inhibition of MMP8 (in words),MMP8,preferentially inhibits
same,inhibition of MMPs in general (in words),MMPs,inhibit most MMPs (except MMP-2 and -14)
B1,inhibition of MMP1 (in words),MMP1,inhibits the activity
same,inhibition of MMP2 (in words),MMP2,inhibits the activity
same,inhibition of MMP3 (in words),MMP3,inhibits the activity
same,inhibition of MMP9 (in words),MMP9,inhibits the activity
same,inhibition of MMP13 (in words),MMP13,inhibits the activity
same,inhibition of TACE (in words),[1],normally inhibits
B2,inhibition of MMP2 (in words),MMP2,preferentially inhibits
same,inhibition of MMP7 (in words),MMP7,preferentially inhibits
same,inhibition of MMPs in general (in words),MMPs,inhibits all known MMPs
